Where two headings read alike, the source gives them in different places.

Data set [1] is described as follows: Determination of the blood-to-plasma ratio (spiked whole blood and plasma, GC–MS of plasma). The class given is in vitro ADME. The following applies: pooled human blood, haematocrit 41%, 1 h at 37 °C; for blood plasma ratio at 1 h, 5 µM: both sexes, pooled whole blood and plasma, read-out: Kb/p experimental (blood-to-plasma ratio); for Kb/p experimental (blood-to-plasma ratio): 5 µM. The procedure:
Human blood (pooled, from three male donors and three female donors) was obtained from Seralab (West Sussex, UK). Blood was received chilled with sodium citrate as an anticoagulant and kept at 4 °C until use. The blood was used prior to its expiration date. Blood haematocrit was 41%, as provided by the supplier.
In this method, only analysis of the plasma is required. Briefly, the compound is spiked into equal volumes of whole blood and plasma. Following equilibration, the whole blood is centrifuged to extract the plasma. The extracted plasma and the original plasma are analysed to obtain compound concentrations. The blood-to-plasma ratio can then be calculated from Eq. 1 (shown below).
In this work, aliquots of whole blood (5 mL) were centrifuged at 2500 rpm for 20 min to provide plasma. This was performed on the day of the experiments. The plasma was removed and stored at 4 °C until use (typically within 2 h).
The compounds were dissolved in DMSO or acetonitrile to produce 5 mM stock solutions. Stock solutions were diluted with PBS (pH 7.4) to produce working solutions (50 µM) on the day of experimentation. Stock solutions were stored for no longer than 1 week. Appropriate volumes of working solutions were added to blood or plasma to yield a final compound concentration of 5 µM (final solvent concentrations were 0.1%). The treated blood or plasma samples were incubated for 1 h at 37 °C. Following incubation, the blood sample was removed and centrifuged at 2500 rpm for 20 min and the plasma was extracted. The 250 µL of extracted plasma (from spiked whole blood) and 250 µL of spiked plasma had ice-cold acetonitrile added to precipitate proteins (4:1 ratio of acetonitrile-to-plasma). Both plasma samples were then centrifuged at 10,000 rpm for 20 min. The supernatants were collected and evaporated under a stream of nitrogen using a Biotage Turbovap LV Evaporator. The evaporated samples were reconstituted in 150 µL acetonitrile and analysed using gas chromatography–mass spectrometry (GC–MS).
The […] was calculated using Eq. 11 Ke/p=1/H×CPRef/CP-1+1, where Ke/p is the red blood cell partition coefficient, H is the haematocrit, CPRef is the concentration (µM) in the reference plasma, and CP is the concentration (µM) in the plasma separated from the whole blood.
Ke/p describes the ratio of the concentration of drug in the red blood cells (not including plasma) to the concentration of drug in plasma. Ke/p can be converted to the blood-to-plasma ratio (Kb/p) with Eq. 22 Kb/p=(Ke/p×H)+1-H, where Kb/p is the blood-to-plasma ratio, Ke/p is the […], and H is the haematocrit. Kb/p therefore describes the ratio of the concentration of drug in whole blood (containing both red blood cells and plasma) to the concentration of the drug in plasma.

For data set [2] the following is noted: cited from earlier work; for Kb/p literature (blood-to-plasma ratio): literature range.
The target of data set [3] is GABAA receptor. The arrangement: method as in PMID 29685303. The following applies: QSAR, previous work; cited from earlier work.
The conditions of data set [4]: ref 13; cited from earlier work.
Details of data set [5]: method as in PMID 31933443. To be noted: user reports; cited from earlier work.

With `C=C[C@H]1C[N@@]2CC[C@H]1C[C@H]2[C@H](O)c1ccnc2ccc(OC)cc12` [Quinine, quinine], in data set [1], the blood plasma ratio at 1 h, 5 µM was determined as 1.66 ± 0.52. Besides, the “Kb/p literature (blood-to-plasma ratio)” value in data set [2] was 1.46–2.00.
For `C[C@@H]1N=C(c2ccccc2Cl)c2cc([N+](=O)[O-])ccc2NC1=O` [Meclonazepam, meclonazepam], the blood plasma ratio at 1 h, 5 µM in data set [1] came out at 0.83 ± 0.08.
In the case of `O=C1Nc2ccc(Cl)cc2C(c2ccccc2Cl)=NC1O` (stereo not drawn) [lorazepam], the values for the blood-to-plasma ratio in data set [2] (ref 16) and in data set [2] (ref 38) were 0.60 and 1.14, respectively.
In the case of `O=C1CN=C(c2ccccc2Cl)c2cc([N+](=O)[O-])ccc2N1` [Clonazepam, clonazepam], the blood-to-plasma ratio in data set [2] (ref 37) is given as 0.65.
On to `Cc1nnc2n1-c1ccc([N+](=O)[O-])cc1C(c1ccccc1F)=NC2` [flunitrazolam], for which the “predicted log 1/c value” in data set [3] is reported as 8.88.
For the compound `CCc1cc2c(s1)-n1c(C)nnc1CN=C2c1ccccc1Cl` [Etizolam, etizolam], in data set [1], the blood plasma ratio at 1 h, 5 µM stood at 0.7 ± 0.03. Further, the plasma protein binding in data set [4] was 92.8%.
Regarding `CCc1cc2c(s1)-n1c(C)nnc1CN=C2c1ccccc1` [Deschloroetizolam, deschloroetizolam], the “Kb/p experimental (blood-to-plasma ratio)” value in data set [1] was 0.68 ± 0.06. Besides, in data set [4], the plasma protein binding is on record as 87.2%.
Consider `Cc1nnc2n1-c1sc(Cl)cc1C(c1ccccc1F)=NC2` [Fluclotizolam], for which the “dose reported as having a 'heavy effect'” value in data set [5] was “more than 0.75 mg”.
`CN(C)CCCN1c2ccccc2Sc2ccc(Cl)cc21` [Chlorpromazine, chlorpromazine]: in data set [1], the blood plasma ratio at 1 h, 5 µM amounted to 1.43 ± 0.32. Moreover, the “Kb/p literature (blood-to-plasma ratio)” value in data set [2] is 1.17–1.56.
`O=C1CN=C(c2ccccc2)c2cc([N+](=O)[O-])ccc2N1` [Nitrazepam, nitrazepam]: the blood plasma ratio at 1 h, 5 µM in data set [1] turned out to be 0.63 ± 0.02. Also, the blood-to-plasma ratio in data set [2] (calculated from literature whole blood and plasma concentrations (125-I radioimmunoassay)) was 0.57 ± 0.27; in data set [2] (commonly reported value, origin unclear), 1.0. The “Kb/p literature (blood-to-plasma ratio)” value in data set [2] was 0.57–1.00.
In the case of `Cc1nnc2n1-c1ccc(Br)cc1C(c1ccccn1)=NC2` [Pyrazolam, pyrazolam], in data set [1], the “Kb/p experimental (blood-to-plasma ratio)” value was 1.18 ± 0.03. Also, the plasma protein binding in data set [4] is given as 78.7%.
Take `O=C1CN=C(c2ccccc2Cl)c2cc(Br)ccc2N1` [Phenazepam, phenazepam]: the blood plasma ratio at 1 h, 5 µM in data set [1] was 0.57 ± 0.13. Also, the plasma protein binding in data set [4] is 98.3%.
Consider `CN1C(=O)CN=C(c2ccccc2Cl)c2cc(Cl)ccc21` [Diclazepam, diclazepam], for which the “Kb/p experimental (blood-to-plasma ratio)” value in data set [1] stood at 0.82 ± 0.05. Besides, the plasma protein binding in data set [4] is reported as 93.8%.

The values are drawn from PMC9715504, “The blood-to-plasma ratio and predicted GABAA-binding affinity of designer benzodiazepines” (Forensic Toxicology, 2022).
